{"source": "patent US11529337B2", "about": "“Method of treating pain” (VERTEX PHARMACEUTICALS INCORPORATED, priority 2018, dated 2022)", "key": {"[1]": {"tested_on": "subjects with pain following bunionectomy", "experiment": "Randomized, double-blind, placebo-controlled study of efficacy in subjects with pain following bunionectomy (Example 3)", "type": "in vivo, human", "experimental": "A randomized, double-blind, placebo-controlled, 3-arm, parallel-design study to evaluate the effect of Compound 1 on acute surgical pain was conducted. Bunionectomy is a well-established, multi-dose, surgical, acute pain model. A randomized, double-blind study design was selected to avoid observer bias and reduce symptoms or outcomes arising from the subjects' knowledge of treatment. A parallel design was considered most appropriate given the acute nature of bunionectomy surgery.\nMale and female patients between the ages of 18 and 65 years (inclusive) with pain that is ≥4 on an 11-point Numeric Pain Rating Scale (NPRS) and is moderate or severe on the Verbal Categorical Rating Scale (VRS) after bunionectomy.\nInvestigational Drug: Compound 1. The investigational drug was administered orally in 250 mg capsules, prepared as described in Example 2. The investigational drug was administered every 12 hours (q12 h). […]\nOn the 11-point NPRS, a score of 0 denoted no pain, and a score of 10 denoted the worst pain intensity imaginable. […] Pain intensity also was recorded on the NPRS immediately before each administration of rescue medication. Pain intensity scores that were collected within 4 hours after a dose of rescue medication were taken as missing, and the missing values were imputed as the intensity recorded immediately before the administration of rescue medication. […]"}, "[2]": {"tested_on": "subjects with pain following bunionectomy", "experiment": "Safety and tolerability evaluations in the bunionectomy study (Example 3)", "text": "Safety evaluations included adverse events, clinical laboratory assessments, clinical evaluation of vital signs, electrocardiograms, and physical examinations."}, "[3]": {"tested_on": "patients with chronic pain caused by small fiber neuropathy", "experiment": "Randomized, double-blind, placebo-controlled 6-week study in patients with chronic pain caused by small fiber neuropathy (Example 5)", "type": "in vivo, human", "experimental": "A randomized, double-blind, placebo-controlled, 6-week study that evaluated treatment with Compound 1 (Treatment Arm) or placebo (Placebo Arm) in patients with chronic pain caused by small fiber neuropathy was conducted.\nMales and females between the ages of 18 and 80 years, inclusive, with small fiber neuropathy.\nCompound 1 was administered orally in 250 mg capsules, prepared as described in Example 2.\nThe study included a 7-day run-in period, followed a 6-week treatment period. The subjects were randomized to a Placebo Arm (43 subjects) and a Treatment Arm (46 subjects) between the run-in period and the treatment period.\nDuring the run-in period, subjects reported their average pain and sleep interference to establish a baseline NRS pain score and DSIS score.\nDuring the treatment period, Compound 1 was administered to the subjects in the Treatment Arm every 24 hours (q24 h) in a dose of 1250 mg. Subjects in the Placebo Arm received placebo capsules.\n11-point Numeric Rating Scale (NRS). Pain intensity was evaluated using an 11-point NRS. The 11-point scale ranged from 0 (no pain) to 10 (worst imaginable pain). From Day −7 through Week 6, subjects reported their average daily pain during the last 24 hours on the NRS via electronic diary.\nDaily Sleep Interference Scale (DSIS). Subjects reported pain interference with sleep using an 11-point scale ranging from 0 (none) to 10 (severe). […]"}}, "data": [{"smiles": "Cc1cc(F)ccc1Oc1cc(C(F)(F)F)ccc1C(=O)Nc1ccn(COP(=O)(O)O)c(=O)c1", "note": "[Compound 1, (4-(2-(4-fluoro-2-methylphenoxy)-4-(trifluoromethyl)benzamido)-2-oxopyridin-1(2H)-yl)methyl dihydrogen phosphate]", "values": [{"measurement": "Relief of acute pain compared to placebo (SPID24), in words", "setting": "[1]; Investigational Arm versus placebo", "value": "statistically significant relief of acute pain compared to placebo"}, {"measurement": "Subjects who discontinued due to lack of efficacy", "setting": "[1]; number (percentage) of subjects assigned to the arm", "value": "6 (7.5%)"}, {"measurement": "Tolerability, in words", "setting": "[2]; bunionectomy study", "value": "generally well tolerated"}, {"measurement": "Gastrointestinal adverse events", "setting": "[2]; share of subjects in the arm", "value": 13, "unit": "%"}, {"measurement": "Subjects with ≥30% reduction in weekly average of daily pain intensity on NRS", "setting": "[3]; Week 6, total = subjects with data at Week 6", "value": "45.0% (18/40)"}, {"measurement": "Treatment difference in NRS pain intensity versus placebo at Week 1", "setting": "[3]; observed as early as Week 1", "value": "greater than 1 point"}]}]}
